pKd: −log10 of the molar value.
Tests used:
ATAD2A = biological target: T1, ATAD2A (Homo sapiens, UniProt Q6PL18); assay: BROMOscan ligand-binding assay; conditions: KD, BROMOscan Gene Symbol ATAD2A
T1 sequence (Q6PL18 980-1092 limits assumed): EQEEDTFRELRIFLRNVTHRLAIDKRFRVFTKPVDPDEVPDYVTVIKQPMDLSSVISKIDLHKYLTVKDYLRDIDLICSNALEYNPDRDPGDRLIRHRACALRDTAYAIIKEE
Source text: (§2) BROMOscan is a binding assay based on the well-known KINOMEscan technology. This assay measures the binding of a DNA-tagged bromodomain to an immobilized BRD ligand. If an inhibitor is present, it will compete with the bromodomain binding to the immobilized ligand, resulting in reduction of a quantitative PCR (qPCR) signal in a dose-dependent manner.

WDR9(2) = WDR9(2) (Homo sapiens, UniProt Q9NSI6); assay: BROMOscan ligand-binding assay
Source text: as §2

BRD8(1) = BRD8(1) (Homo sapiens, UniProt Q9H0E9); assay: BROMOscan ligand-binding assay; conditions: KD, BROMOscan Gene Symbol BRD8(1)
Source text: as §2

BRD8(2) = BRD8(2) (Homo sapiens, UniProt Q9H0E9); assay: BROMOscan ligand-binding assay; conditions: KD, BROMOscan Gene Symbol BRD8(2)
Source text: as §2

TRIM33(PHD,BRD) = biological target: T2, TRIM33(PHD,BRD) (Homo sapiens, UniProt Q9UPN9); assay: BROMOscan ligand-binding assay
T2 sequence (Q9UPN9 882-1087 limits assumed): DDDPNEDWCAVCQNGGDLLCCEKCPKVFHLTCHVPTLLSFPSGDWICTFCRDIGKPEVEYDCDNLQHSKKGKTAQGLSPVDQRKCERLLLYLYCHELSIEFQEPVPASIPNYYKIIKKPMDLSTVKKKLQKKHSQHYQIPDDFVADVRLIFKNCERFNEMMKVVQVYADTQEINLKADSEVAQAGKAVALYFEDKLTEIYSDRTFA
Source text: as §2

EP300 = biological target: T3, EP300 (Homo sapiens, UniProt Q09472); assay: BROMOscan ligand-binding assay; conditions: KD, BROMOscan Gene Symbol EP300
T3 sequence (Q09472 1049-1156 limits assumed): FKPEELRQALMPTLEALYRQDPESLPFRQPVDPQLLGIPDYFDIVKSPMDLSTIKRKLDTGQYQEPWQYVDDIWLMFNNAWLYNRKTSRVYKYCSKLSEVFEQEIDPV
Source text: as §2

BRPF1 = biological target: T4, BRPF1 (Homo sapiens, UniProt P55201); assay: BROMOscan ligand-binding assay; conditions: KD, BROMOscan Gene Symbol BRPF1
T4 sequence (P55201 628-732 limits assumed): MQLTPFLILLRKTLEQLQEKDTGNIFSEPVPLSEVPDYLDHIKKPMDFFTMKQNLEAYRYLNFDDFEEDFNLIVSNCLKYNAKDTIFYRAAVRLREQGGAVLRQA
Source text: as §2

C2C12 myoblast cells = assay: Gene-expression analysis (microarray); assay type: cell-based, mouse; conditions: 12 h; 500 nM (JQ1, LP-99), 2 μM (GSK2801, BAZ2-ICR, BSP)
Method: Total RNA was extracted using the PureLink^TM RNA mini kit (Thermo Fisher Scientific, 12183018A) as per the manufacturer’s protocol.
RNA samples were processed for oligonucleotide microarray profiling utilizing the Affymetrix Clariom^TM S Assay HT mouse. Quality controls were carried out in R (v.3.5.1) and Bioconductor[71] (v.3.7) using the arrayQualityMetrics package (v.3.36.0) taking into account array intensity distributions, distance between arrays, and variance mean dependence. Principal component analysis was used to decide which arrays to process together. After quality control, arrays were corrected for background, normalized, and log2-transformed together using the rma function of the oligo package (v.1.44)[73] in R/Bioconductor. Probes with small variance across samples were filtered out using the genefilter (v.1.62) package, employing the nsFilter function and an interquartile range cut-off of 0.28 (or >log(1.2), determined by the midpoint of the shortest interval containing half of the data). This reduced the number of probes of the Clariom^TM S array from 29,129 to 14,538.
Differential expression analysis was conducted using the limma package (v.3.36.2)[74], employing a linear model followed by empirical Bayesian analysis to determine differential expression between not-treated and treated samples.

SMARCA2 = SMARCA2 (Homo sapiens, UniProt P51531); assay: BROMOscan ligand-binding assay; conditions: KD, BROMOscan Gene Symbol SMARCA2
Source text: as §2

ATAD2B = biological target: T5, ATAD2B (Homo sapiens, UniProt Q9ULI0); assay: BROMOscan ligand-binding assay; conditions: KD, BROMOscan Gene Symbol ATAD2B
T5 sequence (Q9ULI0 951-1066 limits assumed): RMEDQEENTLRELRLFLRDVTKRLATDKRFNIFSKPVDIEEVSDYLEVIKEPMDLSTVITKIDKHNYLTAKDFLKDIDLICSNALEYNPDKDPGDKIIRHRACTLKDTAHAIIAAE
Source text: as §2

BAZ2B = biological target: T6, BAZ2B (Homo sapiens, UniProt Q9UIF8); assay: BROMOscan ligand-binding assay; conditions: KD, BROMOscan Gene Symbol BAZ2B
T6 sequence (Q9UIF8 2060-2164 limits assumed): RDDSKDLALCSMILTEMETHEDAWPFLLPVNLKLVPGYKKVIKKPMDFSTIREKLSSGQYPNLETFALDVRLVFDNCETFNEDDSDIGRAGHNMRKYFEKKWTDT
Source text: as §2

CBP = biological target: T7, CBP (Homo sapiens, UniProt Q92793); assay: Temperature shift assay (bromodomains); assay type: binding; conditions: compared to ITC KD
T7 construct: Recombinant protein domains (bromodomain or kinases) at a concentration of 2 μM
Method: (§1) Temperature shift assays have been described by Fedorov et al.[46]. Recombinant protein domains (bromodomain or kinases) at a concentration of 2 μM in 10 mM HEPES, pH 7.5, and 500 mM NaCl were mixed with 10 μM of chemical probes. Temperature-dependent protein unfolding profiles were measured using a Real-Time PCR Mx3005p machine (Stratagene).

BRD9 = biological target: T8, BRD9 (Homo sapiens, UniProt Q9H8M2); assay: Temperature shift assay (bromodomains); assay type: binding; conditions: compared to ITC KD
T8 construct: purchased DiscoverX BROMOscan (bromodomains); SGC in-house methyltransferase panel
Method: as §1

TAF1L(2) = biological target: T9, TAF1L(2) (Homo sapiens, UniProt Q8IZX4); assay: Temperature shift assay (bromodomains); assay type: binding; conditions: compared to ITC KD
T9 construct: purchased DiscoverX BROMOscan (bromodomains); SGC in-house methyltransferase panel
Method: as §1

SMARCA2(iso.A) = SMARCA2(iso.A) (Homo sapiens, UniProt P51531); assay: BROMOscan ligand-binding assay; conditions: KD, BROMOscan Gene Symbol SMARCA2(iso.A)
Source text: as §2

BAZ1B = biological target: T10, BAZ1B (Homo sapiens, UniProt Q9UIG0); assay: BROMOscan ligand-binding assay; conditions: KD, BROMOscan Gene Symbol BAZ1B
T10 sequence (Q9UIG0 1339-1443 limits assumed): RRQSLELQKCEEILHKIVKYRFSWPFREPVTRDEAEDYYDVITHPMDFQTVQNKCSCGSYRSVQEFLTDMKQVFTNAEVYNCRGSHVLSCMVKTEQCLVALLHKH
Source text: as §2

GCN5L2 = biological target: T11, GCN5L2 (Homo sapiens, UniProt Q92830); assay: BROMOscan ligand-binding assay; conditions: KD, BROMOscan Gene Symbol GCN5L2
T11 sequence (Q92830 728-832 limits assumed): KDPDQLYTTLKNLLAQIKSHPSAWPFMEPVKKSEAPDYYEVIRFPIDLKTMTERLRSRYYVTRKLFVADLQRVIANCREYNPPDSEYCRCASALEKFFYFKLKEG
Source text: as §2

[1] = KD (BROMOscan), sheet prints no unit (nM)

WDR9(2), sequence (Q9NSI6 1313-1418 limits assumed): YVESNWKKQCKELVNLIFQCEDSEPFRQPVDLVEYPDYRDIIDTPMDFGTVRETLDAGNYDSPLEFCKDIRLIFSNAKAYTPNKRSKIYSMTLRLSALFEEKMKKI
SMARCA2(iso.A), sequence (P51531 1378-1506 limits assumed): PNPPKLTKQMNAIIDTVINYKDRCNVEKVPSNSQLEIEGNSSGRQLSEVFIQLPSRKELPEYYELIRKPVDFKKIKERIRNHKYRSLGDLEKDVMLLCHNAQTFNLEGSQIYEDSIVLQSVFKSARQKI
T8 sequence (Q9H8M2 134-239): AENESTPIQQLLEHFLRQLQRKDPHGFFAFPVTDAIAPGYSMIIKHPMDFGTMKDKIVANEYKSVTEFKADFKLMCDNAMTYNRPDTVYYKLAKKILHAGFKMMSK
BRD8(1), sequence (Q9H0E9 706-811 limits assumed): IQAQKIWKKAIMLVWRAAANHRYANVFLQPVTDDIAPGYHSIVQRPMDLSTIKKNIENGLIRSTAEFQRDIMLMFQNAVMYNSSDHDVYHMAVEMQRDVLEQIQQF
SMARCA2, sequence (P51531 1-1572 isoform P51531-2): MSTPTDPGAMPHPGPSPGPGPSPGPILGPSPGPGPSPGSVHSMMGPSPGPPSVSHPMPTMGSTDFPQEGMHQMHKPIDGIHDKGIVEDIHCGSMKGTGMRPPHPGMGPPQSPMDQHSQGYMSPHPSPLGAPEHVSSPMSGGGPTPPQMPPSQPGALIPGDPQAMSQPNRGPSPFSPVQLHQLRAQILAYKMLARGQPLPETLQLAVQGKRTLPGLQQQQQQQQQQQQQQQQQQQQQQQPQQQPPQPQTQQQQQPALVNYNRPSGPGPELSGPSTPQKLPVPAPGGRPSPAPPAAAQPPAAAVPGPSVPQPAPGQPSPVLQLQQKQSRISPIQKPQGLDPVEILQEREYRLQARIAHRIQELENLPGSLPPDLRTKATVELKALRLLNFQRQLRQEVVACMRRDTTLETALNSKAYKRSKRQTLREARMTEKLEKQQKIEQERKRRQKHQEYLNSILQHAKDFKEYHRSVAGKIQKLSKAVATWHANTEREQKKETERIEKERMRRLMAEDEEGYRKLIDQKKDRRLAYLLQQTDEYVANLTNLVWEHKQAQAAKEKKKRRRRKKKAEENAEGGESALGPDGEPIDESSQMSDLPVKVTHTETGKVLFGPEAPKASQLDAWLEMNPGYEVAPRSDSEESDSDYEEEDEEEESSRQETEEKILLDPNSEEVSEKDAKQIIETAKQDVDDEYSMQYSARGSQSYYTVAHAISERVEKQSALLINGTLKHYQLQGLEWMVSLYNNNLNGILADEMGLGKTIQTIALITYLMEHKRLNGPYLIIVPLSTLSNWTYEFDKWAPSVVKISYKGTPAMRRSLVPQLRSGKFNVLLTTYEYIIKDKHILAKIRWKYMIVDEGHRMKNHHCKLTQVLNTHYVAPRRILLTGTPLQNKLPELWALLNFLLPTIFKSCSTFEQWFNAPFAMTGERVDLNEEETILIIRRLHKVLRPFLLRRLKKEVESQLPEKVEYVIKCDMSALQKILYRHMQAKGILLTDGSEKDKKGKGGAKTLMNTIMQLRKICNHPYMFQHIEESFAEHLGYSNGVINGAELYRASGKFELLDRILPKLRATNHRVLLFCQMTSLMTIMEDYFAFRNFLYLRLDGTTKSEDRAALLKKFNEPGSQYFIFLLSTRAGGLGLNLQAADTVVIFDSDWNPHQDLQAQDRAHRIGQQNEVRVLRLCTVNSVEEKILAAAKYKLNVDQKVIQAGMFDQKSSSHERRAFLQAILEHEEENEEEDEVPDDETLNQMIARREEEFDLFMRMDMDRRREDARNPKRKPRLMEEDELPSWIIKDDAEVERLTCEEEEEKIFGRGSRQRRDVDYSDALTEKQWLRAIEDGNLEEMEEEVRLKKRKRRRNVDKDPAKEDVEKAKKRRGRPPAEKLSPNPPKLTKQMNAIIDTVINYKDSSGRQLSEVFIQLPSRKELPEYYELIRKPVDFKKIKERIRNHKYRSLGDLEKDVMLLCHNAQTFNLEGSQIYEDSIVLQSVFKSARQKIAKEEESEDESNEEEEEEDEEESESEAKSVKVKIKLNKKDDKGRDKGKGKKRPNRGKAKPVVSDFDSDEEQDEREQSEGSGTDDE
T7 sequence (Q92793 1085-1192 limits assumed): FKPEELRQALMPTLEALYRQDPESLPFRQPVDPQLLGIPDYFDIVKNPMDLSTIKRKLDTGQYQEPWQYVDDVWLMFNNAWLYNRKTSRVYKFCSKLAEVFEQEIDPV
BRD8(2), sequence (Q9H0E9 1099-1207 limits assumed): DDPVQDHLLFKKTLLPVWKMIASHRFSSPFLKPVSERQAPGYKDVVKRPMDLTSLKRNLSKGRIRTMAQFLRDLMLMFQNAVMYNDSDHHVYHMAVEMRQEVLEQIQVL
T9 sequence (Q8IZX4 1523-1654 limits assumed): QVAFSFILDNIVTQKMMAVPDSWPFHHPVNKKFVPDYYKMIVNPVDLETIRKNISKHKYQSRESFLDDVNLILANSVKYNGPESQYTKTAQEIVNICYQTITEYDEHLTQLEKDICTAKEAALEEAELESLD

pKd (ATAD2A): 4.21
Kd (WDR9(2); [1]): > 30000 nM
pKd (WDR9(2); KD, BROMOscan Gene Symbol WDR9(2)): < 4.30
pKd (BRD8(1)): 4.55
pKd (BRD8(2)): 4.40
Kd (TRIM33(PHD,BRD); [1]): > 30000 nM
pKd (TRIM33(PHD,BRD); KD, BROMOscan Gene Symbol TRIM33(PHD,Bromo.)): < 4.30
pKd (EP300): 5.80
pKd (BRPF1): 6.22
pKd (SMARCA2): 5.34
pKd (ATAD2B): 4.52
pKd (BAZ2B): 5.04
ΔTm (CBP): relatively large ΔTm
ΔTm (BRD9): only modest ΔTm
ΔTm (TAF1L(2)): only modest ΔTm
pKd (SMARCA2(iso.A)): 5.21
pKd (BAZ1B): 4.42
pKd (GCN5L2): 4.92
SMILES: CCOC(=O)Nc1cc(-c2ccc(C)c(NS(C)(=O)=O)c2)nn2c(C)nnc12 [Bromosporine]
changes in gene-expression levels (C2C12 myoblast cells): significant changes in gene-expression levels

Reference: PMC6478789, “A chemical toolbox for the study of bromodomains and epigenetic signaling” (Nature Communications, 2019)
